These results are taken from ChEMBL document CHEMBL2073929, “Interactions of rifamycin SV and rifampicin with organic anion uptake systems of human liver” (Hepatology, 2002).

The target of data set [1] is T1, Solute carrier organic anion transporter family member 1B3 (Homo sapiens, UniProt Q9NPD5).
T1 sequence (Q9NPD5 whole entry): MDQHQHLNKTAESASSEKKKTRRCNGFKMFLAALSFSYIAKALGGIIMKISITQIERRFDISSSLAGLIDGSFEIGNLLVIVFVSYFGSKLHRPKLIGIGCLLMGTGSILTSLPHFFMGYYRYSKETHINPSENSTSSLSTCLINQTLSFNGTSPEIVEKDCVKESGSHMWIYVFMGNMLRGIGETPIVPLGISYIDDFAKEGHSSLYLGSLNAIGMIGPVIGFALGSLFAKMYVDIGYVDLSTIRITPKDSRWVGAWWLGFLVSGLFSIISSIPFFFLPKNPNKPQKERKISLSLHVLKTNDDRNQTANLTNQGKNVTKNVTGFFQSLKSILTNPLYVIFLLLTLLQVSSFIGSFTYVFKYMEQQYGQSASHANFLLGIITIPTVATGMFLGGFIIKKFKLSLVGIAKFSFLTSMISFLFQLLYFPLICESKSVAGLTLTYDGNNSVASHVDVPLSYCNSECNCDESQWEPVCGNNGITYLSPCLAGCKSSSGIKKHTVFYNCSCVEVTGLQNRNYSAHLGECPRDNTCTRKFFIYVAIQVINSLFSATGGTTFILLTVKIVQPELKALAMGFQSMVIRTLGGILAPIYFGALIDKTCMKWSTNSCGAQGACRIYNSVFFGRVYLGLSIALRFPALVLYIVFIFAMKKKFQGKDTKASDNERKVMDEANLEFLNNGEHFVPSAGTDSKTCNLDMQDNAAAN
Briefly: (§1) TP_TRANSPORTER: inhibition of BSP uptake in Xenopus laevis oocytes. The format is functional, cell-based, Oocyte.

For data set [2], the target named is T2, Solute carrier organic anion transporter family member 1B1 (Homo sapiens, UniProt Q9Y6L6).
T2 sequence (Q9Y6L6 whole entry): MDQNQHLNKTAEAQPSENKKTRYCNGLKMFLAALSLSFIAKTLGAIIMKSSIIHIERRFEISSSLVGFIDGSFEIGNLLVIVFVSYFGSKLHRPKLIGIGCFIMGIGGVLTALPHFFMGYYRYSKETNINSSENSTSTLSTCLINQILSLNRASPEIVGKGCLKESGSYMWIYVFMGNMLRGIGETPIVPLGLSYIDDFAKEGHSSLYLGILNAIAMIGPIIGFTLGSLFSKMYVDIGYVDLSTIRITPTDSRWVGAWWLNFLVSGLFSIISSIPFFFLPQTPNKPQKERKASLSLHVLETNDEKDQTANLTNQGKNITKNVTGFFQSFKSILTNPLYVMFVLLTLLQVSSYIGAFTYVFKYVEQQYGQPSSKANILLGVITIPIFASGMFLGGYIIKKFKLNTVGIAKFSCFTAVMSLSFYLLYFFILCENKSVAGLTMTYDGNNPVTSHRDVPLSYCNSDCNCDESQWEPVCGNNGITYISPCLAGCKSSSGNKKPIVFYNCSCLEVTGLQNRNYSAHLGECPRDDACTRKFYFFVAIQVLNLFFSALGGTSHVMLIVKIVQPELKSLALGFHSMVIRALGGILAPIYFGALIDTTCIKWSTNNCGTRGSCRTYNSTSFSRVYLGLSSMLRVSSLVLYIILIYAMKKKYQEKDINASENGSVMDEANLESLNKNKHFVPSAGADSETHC
The data set is described as §1. The format is functional, cell-based, Oocyte.

Data set [3] deals with T3, Solute carrier organic anion transporter family member 1A2 (Homo sapiens, UniProt P46721).
T3 sequence (P46721 whole entry): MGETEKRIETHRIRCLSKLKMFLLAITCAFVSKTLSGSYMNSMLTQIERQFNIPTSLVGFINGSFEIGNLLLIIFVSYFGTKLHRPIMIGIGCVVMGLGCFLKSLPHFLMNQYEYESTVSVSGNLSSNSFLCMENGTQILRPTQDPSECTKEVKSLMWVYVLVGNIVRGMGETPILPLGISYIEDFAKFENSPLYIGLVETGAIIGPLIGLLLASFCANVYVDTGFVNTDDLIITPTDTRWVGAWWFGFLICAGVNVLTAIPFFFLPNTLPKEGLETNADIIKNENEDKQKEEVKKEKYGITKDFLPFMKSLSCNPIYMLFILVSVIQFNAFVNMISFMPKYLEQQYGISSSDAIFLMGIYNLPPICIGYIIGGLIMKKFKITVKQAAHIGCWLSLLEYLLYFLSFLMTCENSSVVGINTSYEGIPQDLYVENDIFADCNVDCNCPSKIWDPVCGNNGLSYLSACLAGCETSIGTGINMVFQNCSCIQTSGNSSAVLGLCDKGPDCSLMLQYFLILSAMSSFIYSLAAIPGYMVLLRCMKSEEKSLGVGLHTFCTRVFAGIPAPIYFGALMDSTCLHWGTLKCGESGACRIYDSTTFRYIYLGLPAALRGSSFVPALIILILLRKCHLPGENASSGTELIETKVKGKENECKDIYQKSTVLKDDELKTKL
The data set is described as §1. The format is functional, cell-based, Oocyte.

Data set [4] has as its target T4, Solute carrier organic anion transporter family member 1B3 (OATP1B3) (Homo sapiens, UniProt Q9NPD5).
T4 sequence (Q9NPD5 whole entry): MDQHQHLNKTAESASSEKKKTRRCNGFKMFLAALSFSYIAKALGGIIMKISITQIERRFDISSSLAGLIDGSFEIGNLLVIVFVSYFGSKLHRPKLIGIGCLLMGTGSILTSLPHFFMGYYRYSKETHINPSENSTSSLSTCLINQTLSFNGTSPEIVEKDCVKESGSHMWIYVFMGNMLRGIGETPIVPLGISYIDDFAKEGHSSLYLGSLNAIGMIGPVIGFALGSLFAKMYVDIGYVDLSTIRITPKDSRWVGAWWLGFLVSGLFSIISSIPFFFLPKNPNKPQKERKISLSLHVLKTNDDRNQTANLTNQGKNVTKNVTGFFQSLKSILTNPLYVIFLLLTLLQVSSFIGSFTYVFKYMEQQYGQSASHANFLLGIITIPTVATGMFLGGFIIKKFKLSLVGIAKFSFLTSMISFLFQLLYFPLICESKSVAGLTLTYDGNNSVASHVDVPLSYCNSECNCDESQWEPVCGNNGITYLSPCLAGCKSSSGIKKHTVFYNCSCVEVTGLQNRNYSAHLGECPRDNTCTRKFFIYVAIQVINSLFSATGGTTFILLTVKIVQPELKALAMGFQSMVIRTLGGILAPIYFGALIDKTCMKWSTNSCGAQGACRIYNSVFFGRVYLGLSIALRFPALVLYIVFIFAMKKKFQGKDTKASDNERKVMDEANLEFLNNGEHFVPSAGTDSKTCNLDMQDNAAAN
The data set can be described thus: (§2) TP_TRANSPORTER: uptake in Xenopus laevis oocytes. The class given is functional, cell-based, Oocyte. As to conditions: Xenopus laevis oocytes expressing the transporter.

Data set [5] concerns the target T5, Solute carrier organic anion transporter family member 2B1 (Homo sapiens, UniProt O94956).
T5 sequence (O94956 whole entry): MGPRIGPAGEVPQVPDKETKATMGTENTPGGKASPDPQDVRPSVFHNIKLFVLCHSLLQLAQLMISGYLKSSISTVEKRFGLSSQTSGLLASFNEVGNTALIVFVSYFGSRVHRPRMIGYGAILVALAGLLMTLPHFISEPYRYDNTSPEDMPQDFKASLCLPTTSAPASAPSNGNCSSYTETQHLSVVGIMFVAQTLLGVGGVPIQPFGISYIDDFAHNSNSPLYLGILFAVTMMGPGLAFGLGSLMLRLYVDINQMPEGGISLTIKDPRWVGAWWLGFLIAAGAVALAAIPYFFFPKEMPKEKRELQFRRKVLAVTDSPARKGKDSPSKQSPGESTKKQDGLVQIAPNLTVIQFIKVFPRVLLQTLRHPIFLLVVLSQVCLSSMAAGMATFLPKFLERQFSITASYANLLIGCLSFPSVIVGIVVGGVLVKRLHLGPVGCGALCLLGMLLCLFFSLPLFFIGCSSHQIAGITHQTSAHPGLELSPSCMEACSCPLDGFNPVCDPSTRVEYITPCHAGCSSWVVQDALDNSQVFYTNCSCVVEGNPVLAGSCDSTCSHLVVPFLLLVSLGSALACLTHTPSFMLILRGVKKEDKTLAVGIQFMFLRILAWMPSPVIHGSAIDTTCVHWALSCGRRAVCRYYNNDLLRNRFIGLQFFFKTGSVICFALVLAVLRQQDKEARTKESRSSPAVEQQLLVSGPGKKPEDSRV
The description is as §2. As to conditions: oocyte. The format is functional, cell-based.

In data set [6] the target is T3, Solute carrier organic anion transporter family member 1A2. The description is as §2. The format is functional, cell-based. As to conditions: oocyte.
Data set [7] has as its target T5, Solute carrier organic anion transporter family member 2B1. The data set is described as §1. The format is functional, cell-based, Oocyte.
Substrate in data set [8]: CO[C@H]1/C=C/O[C@@]2(C)Oc3c(C)c(O)c4c(O)c(c(/C=N/N5CCN(C)CC5)c(O)c4c3C2=O)NC(=O)/C(C)=C\C=C\[C@H](C)[C@H](O)[C@@H](C)[C@@H](O)[C@@H](C)[C@H](OC(C)=O)[C@@H]1C
The description is as §2. The format is functional, cell-based, Oocyte.

Usually Ki stands for the dissociation constant of the complex between target and ligand, obtained from inhibition or displacement. A low value points to a stronger hold on the target. Broadly, the Km is the substrate concentration at which the rate is half of its maximum. `CO[C@H]1/C=C/O[C@@]2(C)Oc3c(C)c(O)c4c(O)c(c(/C=N/N5CCN(C)CC5)c(O)c4c3C2=O)NC(=O)/C(C)=C\C=C\[C@H](C)[C@H](O)[C@@H](C)[C@@H](O)[C@@H](C)[C@H](OC(C)=O)[C@@H]1C` [RIFAMPIN]: the Ki was 5 µM in data set [1], 17 µM in data set [2] and 51 µM in data set [3]. In data set [4], the Km came out at 2.3 µM. Also, the Activity result in data set [5] and in data set [6] was “is not a substrate [-]” throughout.
For `CO[C@H]1/C=C/O[C@@]2(C)Oc3c(C)c(O)c4c(O)c(cc(O)c4c3C2=O)NC(=O)/C(C)=C\C=C\[C@H](C)[C@H](O)[C@@H](C)[C@@H](O)[C@@H](C)[C@H](OC(C)=O)[C@@H]1C` [RIFAMYCIN], the Ki is 3 µM in data set [1], 2 µM in data set [2], 3 µM in data set [7] and 11 µM in data set [3].

B1: Solute carrier organic anion transporter family member 1B1 (Homo sapiens) (protein)
chain: MDQNQHLNKTAEAQPSENKKTRYCNGLKMFLAALSLSFIAKTLGAIIMKSSIIHIERRFEISSSLVGFIDGSFEIGNLLVIVFVSYFGSKLHRPKLIGIGCFIMGIGGVLTALPHFFMGYYRYSKETNINSSENSTSTLSTCLINQILSLNRASPEIVGKGCLKESGSYMWIYVFMGNMLRGIGETPIVPLGLSYIDDFAKEGHSSLYLGILNAIAMIGPIIGFTLGSLFSKMYVDIGYVDLSTIRITPTDSRWVGAWWLNFLVSGLFSIISSIPFFFLPQTPNKPQKERKASLSLHVLETNDEKDQTANLTNQGKNITKNVTGFFQSFKSILTNPLYVMFVLLTLLQVSSYIGAFTYVFKYVEQQYGQPSSKANILLGVITIPIFASGMFLGGYIIKKFKLNTVGIAKFSCFTAVMSLSFYLLYFFILCENKSVAGLTMTYDGNNPVTSHRDVPLSYCNSDCNCDESQWEPVCGNNGITYISPCLAGCKSSSGNKKPIVFYNCSCLEVTGLQNRNYSAHLGECPRDDACTRKFYFFVAIQVLNLFFSALGGTSHVMLIVKIVQPELKSLALGFHSMVIRALGGILAPIYFGALIDTTCIKWSTNNCGTRGSCRTYNSTSFSRVYLGLSSMLRVSSLVLYIILIYAMKKKYQEKDINASENGSVMDEANLESLNKNKHFVPSAGADSETHC
Consider B1, for which, in data set [8], the Km came out at 13 µM.
